How the values were obtained:
[1] = test system: fibroblast cultures from normal skin; experiment: In vitro myofibroblast differentiation assay (α-smooth muscle actin staining), normal skin fibroblasts; format: cell-based, human; conditions: GF depleted medium + 5 μg/ml, 14 days
From the text: (§1) One of the most important cell types in both normal and pathological scar formation is the myofibroblast. These cells, which differentiate from the unwounded tissue cell type (fibroblasts), are responsible for laying down scar tissue. Indeed myofibroblasts remain present in hypertrophic scars up to four years after the original wounding event. An in vitro assay was accordingly developed to identify actives which prevent or reduce myofibroblast formation and thus identify actives which are effective in reducing and/or preventing scar tissue formation.
(§2) Fibroblast cultures were initiated from normal skin, normal scars, hypertrophic scars (HTS) and burns scars.
Each culture was split into seven parts (A to G) and grown in the following different growth media: […]
(§3) The fibroblasts were grown in these media (which was replenished twice weekly) for fourteen days, fixed and stained immunohistochemically using an antibody specific for α-smooth muscle actin (a marker of myofibroblasts). […] The number of these was counted, as was the total number of cells present, and the proportion of myofibroblasts was then calculated. In this manner, the number of myofibroblasts present in each culture was determined as a percentage of the total number of cells in the culture population.

[2] = test system: fibroblast cultures from normal scars; experiment: In vitro myofibroblast differentiation assay (α-smooth muscle actin staining), normal scar fibroblasts; format: cell-based, human
From the text: as §1, §2
(§4) Each culture was split into seven parts (A to G) and grown in the following different growth media:
(§5) (A) was grown in normal growth medium (hereinafter referred to as NGM) which consisted of Dulbecco's modified Eagles Medium (DMEM) plus 10% Foetal Calf Serum (FCS);
(§6) (B) was grown in growth factor depleted medium (hereinafter referred to as GF depleted) which is NGM that is depleted of active polypeptide growth factors including TGFP. It is prepared by treating FCS with a reducing agent in order to attack and cleave the disulphide bonds that determine the conformation and thus the biological activity of the polypeptide growth factors;
(§7) (D) (D1-D4) were grown in growth factor depleted medium plus 1 ng/ml-100 ng/ml of insulin-like Growth Factor-I) (IGF-I) (hereinafter referred to as GF depleted+IGF-I); (E) (E1-E3) were grown in growth factor depleted medium plus 50 ng/ml-[…] of insulin-like Growth Factor II (IGF-II) (hereinafter referred to as GF depleted+IGFII); (F) (F1F3) were grown in growth factor depleted medium plus 25 ng/ml to 100 ng/ml of basic fibroblast growth factor (bFGF) (hereinafter referred to as GF depleted and bFGF); […]
as §3
(§8) Fibroblast cultures were initiated from normal scars (NS) and hypertrophic scars (HTS). […] The number of myofibroblasts was calculated as a percentage of the total cell population and the results are shown in FIGS. 1 and 2 of the drawings.
(§9) Fibroblasts cultures were initiated from normal and hypertrophic scars. […] The number of myofibroblasts were counted and calculated as a percentage of the total cells present.

[3] = test system: dermal fibroblast cell lines; experiment: Myofibroblast number in dermal fibroblast cell lines in GFD medium with PPAR agonist; format: cell-based, human; conditions: 1 IU/ml insulin alone, 14 days
From the text: Dermal fibroblast cell lines were derived from 3 patients and seeded individually onto sterile coverslips. […] Medium was refreshed twice weekly and cultures were harvested for immunohistochemical staining for α-smooth muscle actin after 14 days. The number of myofibroblasts was counted and calculated as a percentage of the total cells present, and since the ability of each cell line to differentiate into myofibroblasts varied extensively, the results were normalised as follows. Results are expressed as the mean percentage reduction in myofibroblast number for each treatment as compared to the proportion of myofibroblasts identified in GFD medium alone for that cell line. The error bars represent plus or minus one standard deviation.

[4] = test system: fibroblast cultures from burns scars; experiment: In vitro myofibroblast differentiation assay (α-smooth muscle actin staining), burns scar fibroblasts; format: cell-based, human; conditions: 14 days
From the text: as §1, §2, §4, §5, §6
(D) (D1-D4) were grown in growth factor depleted medium plus 1 ng/ml-100 ng/ml of insulin-like Growth Factor-I) (IGF-I) (hereinafter referred to as GF depleted+IGF-I); (E) (E1-E3) were grown in growth factor depleted medium plus 50 ng/ml-[…] of insulin-like Growth Factor II (IGF-II) (hereinafter referred to as GF depleted+IGFII); (F) (F1F3) were grown in growth factor depleted medium plus 25 ng/ml to 100 ng/ml of basic fibroblast growth factor (bFGF) (hereinafter referred to as GF depleted and bFGF);
(G) (G1-G3) were grown in growth factor depleted medium plus 25 ng/ml to 100 ng/ml of platelet derived growth factor (PDGF) (hereinafter referred to as GF depleted+PDGF).
The fibroblasts were grown in these media (which was replenished twice weekly) for fourteen days, fixed and stained immunohistochemically using an antibody specific for α-smooth muscle actin (a marker of myofibroblasts). The stain caused α-smooth muscle actin to fluoresce green and accordingly cells that had stained green were identified as myofibroblasts. The number of these was counted, as was the total number of cells present, and the proportion of myofibroblasts was then calculated. In this manner, the number of myofibroblasts present in each culture was determined as a percentage of the total number of cells in the culture population.

[5] = test system: murine incisional wounds (myofibroblasts); experiment: Murine incisional wound healing model, α-smooth muscle actin staining score; format: in vivo, male BALB/c mice
From the text: After general anesthesia, both posterior flanks on male BALB/c mice were shaved and cleaned with chlorhexidine in spirit. Two 1.5 cm wounds were marked (one in each flank) parallel to the spine with permanent marker. Full thickness incisions were made along these marks down to the level of the chest wall. Both lateral skin flaps were dissected from the underlying chest wall and the wound assessed from hemorrhage. The wound edges were then infiltrated with test substance or vehicle only control, as appropriate, by injection into the wound edges. Insulatard® was diluted in normal saline (0.9%) to give a final test solution of 1 IU/ml. 0.15 ml of this test solution (0.15 IU) was applied to one of the test wounds and saline alone was applied to the contralateral wound on the same animal. Wounds were closed with interrupted 5/0 Prolene® suture. Mice were recovered from the anesthetic individually and housed in groups of 4. […]
The wounds were analysed in the following manner: The comparison of the actual severity of scarring is impossible in this and all other animal models, since in contrast to human wounds, animal wounds are rapidly closed by way of swift epidermal contraction leaving minimal areas of scarring in any case. We therefore attempted to judge the efficacy of insulin in vivo on its ability to affect the number of myofibroblasts present using immunohistochemical staining methods for the myofibroblast marker, α smooth muscle actin. To allow semi-quantitative analysis of the resulting staining, a visual grading system was developed. Scars were assessed and allocated a score depending on the intensity of alpha smooth muscle actin staining within each section. […] Each scar was assessed at a number (minimum of 3) points along its length and the intensity was scored and averaged for each section to allow comparisons between treatments. Two independent assessors assessed the scoring blindly. The number of wounds assessed for each experimental group was 8. […]

[6] = test system: murine incisional scars; conditions: 1 dose of insulin (Day 0), harvested after 14 days, n=4
Experimental: Scars were wrapped in saline soaked swabs and transported immediately to the laboratory for testing. Each scar was dissected into 2 equal strips (perpendicular to the line of the scar), each of which was measured using a Nikon Shadowmeter. The strip of tissue was mounted on the tensiometer, with the scar mounted at 6 mm from the jaws of the clamps. Traction was applied across the scar at a constant rate of 10 mm/minute, and the force required for disruption of the scar measured. Stress values were calculated by normalising load values to cross-sectional area of each specimen and are given in units of MPa.

[7] = test system: fibroblast cultures from hypertrophic scars (HTS); experiment: In vitro myofibroblast differentiation assay (α-smooth muscle actin staining), hypertrophic scar fibroblasts; format: cell-based, human
From the text: as §1, §2, §4, §5, §6, §7, §3, §8, §9

Substance: Insulin: polypeptide hormone; in vivo and Example 9 tests used Insulatard diluted in saline
- Number of myofibroblasts - percentage of total cell population [1]: 5.26 percentage of total cell popul
- Number of myofibroblasts - percentage of total cell population ([2]; GF depleted medium + 5 μg/ml, 14 days): 6.14 percentage of total cell popul
- Effect on induction of myofibroblast differentiation by active TGFβ1 ([2]; NGM plus 5 μg/ml insulin plus 0.5 ng/ml TGFβ1, 5 days): no effect on the rapid induction of myofibroblast differentiation
- Mean percentage reduction in myofibroblast number compared to GFD medium alone [3]: 76.6%
- Number of myofibroblasts - percentage of total cell population ([4]; GF depleted medium + 10 ng/ml): 16.44 percentage of total cell popul
- Number of myofibroblasts - percentage of total cell population ([4]; GF depleted medium + 100 ng/ml): 15.91 percentage of total cell popul
- Number of myofibroblasts - percentage of total cell population ([4]; GF depleted medium + 5 μg/ml): 8.20 percentage of total cell popul
- Mean score of α-smooth muscle actin staining (out of maximum of 3) ([5]; 0.15 IU Insulatard injected into wound edges, day 14, 8 wounds): 0.486
- Myofibroblast score ([5]; single dose 0.15 IU on day 0, day 14 after wounding (FIG. 4)): dropping down to normal
- Maximum myofibroblast score ([5]; single dose 0.15 IU on day 0, maximum reached over first 7 days (FIG. 4)): 1.92
- Median wound breaking strength [6]: 1.62 MPa
- Number of myofibroblasts - percentage of total cell population ([7]; HTS fibroblasts, GF depleted medium + 5 μg/ml, 14 days): 3.23 percentage of total cell popul
- Effect on induction of myofibroblast differentiation by active TGFβ1 ([7]; hypertrophic scar fibroblasts, NGM plus 5 μg/ml insulin plus 0.5 ng/ml TGFβ1, 5 days): no effect on the rapid induction of myofibroblast differentiation

Source: patent US8557770B2, “Method of preventing or reducing scarring of human skin” (Pharmecosse Ltd., priority 2000, dated 2013)
